What all share (format): cell-based
One test concerns the target T1, wildtype hTRPM5 (Homo sapiens, UniProt Q9NZQ8).
T1 construct: the full length hTRPM5 was amplified by PCR using GC Melt; expressed in transfected cells; host or cells: HEK 293 cells
T1 sequence (Q9NZQ8 1-1165): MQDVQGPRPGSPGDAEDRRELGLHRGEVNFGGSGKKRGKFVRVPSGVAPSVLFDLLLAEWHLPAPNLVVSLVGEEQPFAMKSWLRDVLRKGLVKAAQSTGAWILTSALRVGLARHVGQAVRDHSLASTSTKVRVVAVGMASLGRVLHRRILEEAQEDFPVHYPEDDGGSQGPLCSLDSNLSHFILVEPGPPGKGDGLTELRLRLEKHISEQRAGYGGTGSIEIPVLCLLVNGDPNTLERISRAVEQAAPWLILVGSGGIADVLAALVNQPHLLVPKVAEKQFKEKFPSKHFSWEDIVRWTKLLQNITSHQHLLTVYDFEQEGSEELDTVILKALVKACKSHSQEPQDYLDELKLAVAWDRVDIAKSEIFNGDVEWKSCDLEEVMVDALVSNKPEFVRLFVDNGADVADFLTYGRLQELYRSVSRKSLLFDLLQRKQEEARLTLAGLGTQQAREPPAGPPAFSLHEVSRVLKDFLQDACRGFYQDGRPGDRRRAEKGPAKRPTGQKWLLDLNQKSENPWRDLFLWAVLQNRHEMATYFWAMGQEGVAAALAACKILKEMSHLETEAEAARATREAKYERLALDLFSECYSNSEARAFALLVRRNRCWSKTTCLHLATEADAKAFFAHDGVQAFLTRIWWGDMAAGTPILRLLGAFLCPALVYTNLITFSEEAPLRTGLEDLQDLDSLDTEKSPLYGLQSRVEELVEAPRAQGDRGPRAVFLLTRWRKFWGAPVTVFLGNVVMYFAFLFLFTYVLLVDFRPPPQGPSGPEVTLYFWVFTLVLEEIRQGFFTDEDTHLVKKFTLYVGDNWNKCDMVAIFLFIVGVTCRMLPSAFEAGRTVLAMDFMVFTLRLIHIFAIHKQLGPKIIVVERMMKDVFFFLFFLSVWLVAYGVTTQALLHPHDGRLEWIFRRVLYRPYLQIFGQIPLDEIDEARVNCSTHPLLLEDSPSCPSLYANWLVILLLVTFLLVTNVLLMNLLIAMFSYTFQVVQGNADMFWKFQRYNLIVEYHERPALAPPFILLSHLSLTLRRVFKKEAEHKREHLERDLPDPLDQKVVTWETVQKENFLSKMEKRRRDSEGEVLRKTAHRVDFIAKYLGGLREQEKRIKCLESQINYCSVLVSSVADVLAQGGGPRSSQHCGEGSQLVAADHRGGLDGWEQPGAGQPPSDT
As to the kind of experiment: FMP dye membrane potential assay in cells transfected with wildtype hTRPM5. Conditions: 10 μM ATP, cells transfected with wildtype hTRPM5, FIG. 3. As for the experimental part: (§1) 5.0×10^6 HEK 293 cells (ATCC) were plated in a 10 cm culture dish at 37° C. in a CO2 incubator in Dulbecco's Modified Eagle's Medium (DMEM) supplemented with 10% Fetal Bovine Serum (FBS) and Penicillin-Streptomycin Solution. The following day, medium in the culture dish was exchanged with 15 mL of DMEM/10% FBS over a period of 3 hours. Prior to cell transfection, 24 μg of pcDNA-DEST-26-(His)6-hTRPM5 was incubated in a 5 mL polypropylene tube for 5 minutes at room temperature in 1.5 mL of OPTI-MEM media (Invitrogen). In a separate 5 mL polypropylene tube, 42 μL of Lipofectamine™ 2000 (Invitrogen) was incubated for 5 minutes at room temperature in 1.5 mL of OPTI-MEM media. After the 5 minute incubation period, the pcDNA-DEST-26-(His)6-hTRPM5 and Lipofectamine™ 2000 solutions were mixed together and incubated for an additional 20 minutes at room temperature. […] Plates were then assayed on a FLIPR Tetra reader as described.
(§2) 100 μl of the Blue or Red FMP dye (Molecular Devices) was added to each well of plates seeded with HEK cells transiently transfected with pDEST-26™-(His)6-hTRPM 5. […] The plate was read in a FLEXStation™ microplate reader (Molecular Devices) with an excitation of 530 nm and an emission of 565 nm. The fluorescence was monitored for 3 minutes upon exposure of the cells to a calcium activating agent (carbachol, thrombin peptide or ATP). […]

Test [1] has as its system cells transfected with PSV3 Neo. Nature of the test: FMP dye membrane potential assay in sham cells transfected with PSV3 Neo empty vector. Conditions: 10 μM ATP, sham control, FIG. 3. As to the method:
100 μl of the Blue or Red FMP dye (Molecular Devices) was added to each well of plates seeded with HEK cells transiently transfected with pDEST-26™-(His)6-hTRPM 5. The plate was then incubated in a 37° C. /5% CO2 incubator for 1 hour. The plate was read in a FLEXStation™ microplate reader (Molecular Devices) with an excitation of 530 nm and an emission of 565 nm. The fluorescence was monitored for 3 minutes upon exposure of the cells to a calcium activating agent (carbachol, thrombin peptide or ATP).
Cells transfected with either wildtype hTRPM5 DNA, non-desensitizing (His)6-hTRPM5 DNA or PSV3 Neo were loaded with FMP dye and then treated with 10 μM ATP and monitored for an increase in cellular fluorescence in the FLEXstation™.

Test [2] concerns the target T2, non-desensitizing (His)6-hTRPM5 ion channel (Homo sapiens, UniProt Q9NZQ8).
T2 construct: expressed in transfected cells; host or cells: HEK 293 cells (ATCC), transient transfection with pcDNA-DEST-26-(His)6-hTRPM5
T2 sequence (Q9NZQ8 with tags, fused parts or gaps): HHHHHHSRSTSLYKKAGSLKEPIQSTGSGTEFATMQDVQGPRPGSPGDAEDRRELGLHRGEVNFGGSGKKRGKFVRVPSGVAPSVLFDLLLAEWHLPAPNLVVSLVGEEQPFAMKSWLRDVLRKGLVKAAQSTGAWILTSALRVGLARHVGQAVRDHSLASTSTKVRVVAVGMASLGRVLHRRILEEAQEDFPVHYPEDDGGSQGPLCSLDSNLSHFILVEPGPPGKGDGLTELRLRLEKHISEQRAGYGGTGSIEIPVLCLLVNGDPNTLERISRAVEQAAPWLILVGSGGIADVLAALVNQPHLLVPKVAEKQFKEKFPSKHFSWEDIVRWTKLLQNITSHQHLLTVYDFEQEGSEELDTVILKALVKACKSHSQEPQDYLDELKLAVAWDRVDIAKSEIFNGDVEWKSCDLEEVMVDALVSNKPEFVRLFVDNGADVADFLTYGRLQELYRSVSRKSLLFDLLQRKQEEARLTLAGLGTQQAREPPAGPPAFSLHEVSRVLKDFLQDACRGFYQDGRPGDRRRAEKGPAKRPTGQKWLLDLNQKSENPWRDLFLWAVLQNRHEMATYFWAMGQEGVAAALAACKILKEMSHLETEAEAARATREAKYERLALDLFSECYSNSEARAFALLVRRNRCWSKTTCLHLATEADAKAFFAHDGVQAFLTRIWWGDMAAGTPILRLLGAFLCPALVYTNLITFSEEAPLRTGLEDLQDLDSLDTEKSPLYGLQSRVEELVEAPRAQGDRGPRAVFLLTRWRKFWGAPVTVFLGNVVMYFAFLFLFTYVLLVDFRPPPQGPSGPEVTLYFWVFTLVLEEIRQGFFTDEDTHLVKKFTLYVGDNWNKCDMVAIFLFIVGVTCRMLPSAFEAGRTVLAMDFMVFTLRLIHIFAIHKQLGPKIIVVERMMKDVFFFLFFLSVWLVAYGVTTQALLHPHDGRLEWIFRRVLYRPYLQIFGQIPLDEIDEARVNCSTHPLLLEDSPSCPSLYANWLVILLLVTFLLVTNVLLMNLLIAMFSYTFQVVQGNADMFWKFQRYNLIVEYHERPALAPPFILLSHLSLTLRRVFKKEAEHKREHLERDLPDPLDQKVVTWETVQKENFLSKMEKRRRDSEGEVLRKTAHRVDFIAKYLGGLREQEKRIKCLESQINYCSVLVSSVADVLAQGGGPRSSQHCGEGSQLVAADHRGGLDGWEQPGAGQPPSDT
Nature of the test: FMP dye membrane potential assay in cells transfected with non-desensitizing (His)6-hTRPM5. Conditions: 10 μM ATP, HEK 293 cells transiently transfected with (His)6-hTRPM5, FIG. 3. As to the method:
as §1, with “media.” for “media. After the 5 minute incubation period, the pcDNA-DEST-26-(His)6-hTRPM5 and Lipofectamine™ 2000 solutions were mixed together and incubated for an additional 20 minutes at room temperature.”
as §2
Cells transfected with non-desensitizing (His)6-hTRPM5 DNA were loaded with FMP dye and then treated with 10 μM ATP and monitored for an increase in cellular fluorescence in the FLEXstation™. […]

For the compound `Nc1ncnc2c1ncn2[C@@H]1O[C@H](COP(=O)(O)OP(=O)(O)OP(=O)(O)O)[C@@H](O)[C@H]1O` [ATP, adenosine triphosphate], at wildtype hTRPM5, the “duration of increase in fluorescence (initial activation) before rapid inactivation” value is “about 30 seconds”. Also, in test [1], the “membrane potential response (cellular fluorescence) to application” value is “no significant response”. Further, the “time for which fluorescence is observed at significant levels after activation” value in test [2] is listed as “more than 3 minutes”.

For the origin of these results see patent US7875452B2, “Non-desensitizing mutant of the transient receptor potential TRPM5 ion channel” (Redpoint Bio Corporation, priority 2007, dated 2011).
